The record followed here is PMC3086468 (Journal of medicinal chemistry, 2011).

The subject of one assay is Pep. The assay is described as follows: Lck Y394 phosphorylation in Ptpn22+/+ and Ptpn22−/− mouse T cells. The note with it: 50 μM, stimulated with anti-CD3 and anti-CD4. It is filed as cell-based.
The next assay has as its system primary human T cells. In words: TCR-induced phosphorylation in primary human T cells. It is filed as cell-based. The note with it: 50 μM, anti-CD3/anti-CD28 1 min.
The subject of the next assay is JTAg cells. The assay is described as follows: TCR signaling in JTAg cells, Western blot. It is filed as cell-based, human. The note with it: for TCR-induced phosphorylation of Lck at Y394: 50 μM compound, C305 stimulation 2 min, anti-pSrc(Y416) blot. Background: A western blot detects proteins with antibodies after separation by electrophoresis.
In the next assay the target is T1, LYP (Homo sapiens, UniProt Q9Y2R2).
T1 sequence (Q9Y2R2 2-309): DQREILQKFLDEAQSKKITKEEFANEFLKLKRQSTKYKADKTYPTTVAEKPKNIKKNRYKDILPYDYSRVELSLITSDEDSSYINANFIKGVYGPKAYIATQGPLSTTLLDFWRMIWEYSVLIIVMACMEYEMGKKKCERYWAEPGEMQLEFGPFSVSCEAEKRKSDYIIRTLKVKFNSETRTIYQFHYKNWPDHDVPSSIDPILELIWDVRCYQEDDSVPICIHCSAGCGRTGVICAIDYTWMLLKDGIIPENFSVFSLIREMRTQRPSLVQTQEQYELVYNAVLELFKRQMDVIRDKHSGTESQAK
It is filed as biochemical.

Like-named read-outs stand apart in the source and are kept apart here.

As for `Cc1ccc2[nH]c(=O)c(C(c3nnnn3C3CCCC3)N3CCCC4(CCCCC4)C3)cc2c1` (centres unmarked) [Compound 4], in the assay on Pep, the “Lck phosphorylation at Y394, wild type (Ptpn22+/+) T cells” value was “increased Lck phosphorylation at Y394” and the “Lck phosphorylation, Ptpn22−/− T cells” value is on record as “no effect on phosphorylation of Lck”. In addition, in the assay with primary human T cells, the “TCR-induced phosphorylation of Lck, ZAP70 and LAT” value is “equally able to boost TCR-induced phosphorylation of Lck, ZAP70, and linker for activation of T cells (LAT)”. Moreover, in the assay with JTAg cells (JTAg cells, 50 μM, C305 2 min), the ERK1/2 phosphorylation result is “increased ERK1/2 phosphorylation” and the “TCR-stimulated phosphorylation of ZAP70” value was “increased TCR-stimulated phosphorylation of ZAP70”.

`CCOc1ccc2nc(NC(=O)CSc3nc4sc(C)c(C)c4c(=O)[nH]3)sc2c1` [Compound 1]: the “TCR-induced phosphorylation of Lck at Y394” value in the assay on JTAg cells (JTAg cells) is “lack of activity”.

`Cc1ccc2[nH]c(=O)c(C(c3nnnn3C3CCCC3)N3CCN(C(c4ccccc4)c4ccccc4)CC3)cc2c1` (centres unmarked) [Compound 4f]: the “relationship between IC50 and substrate concentration” value on LYP is reported as “independent from substrate concentration”. In addition, the α on LYP (pH 6) stood at 1.93 ± 1.27.

On to `Cc1ccc2[nH]c(=O)c(C(c3nnnn3C3CCCC3)N(Cc3ccccc3)Cc3ccc(Cl)cc3)cc2c1` (centres unmarked) [Compound 4g], for which the “dual inhibition plot vs compound 13” value at LYP (13.72 μM pY peptide, 25 nM LYP) was “converging lines”. This compound also returned a α at LYP (mixed model inhibition fit, pY peptide, pH 6.0, 37 °C) of 2.96 ± 2.48. Besides, the “relationship between IC50 and substrate concentration” value at LYP (pY peptide, 25 nM LYP) is reported as “independent from substrate concentration”.

For the compound `CCc1cccc(C)c1NC(=O)CSc1nc2c(C)ccc(C)c2cc1C#N` [Compound 2], in the assay with JTAg cells (JTAg cells treated with compound (data not shown)), the “phosphorylation of Lck at Y505” value is “unable to detect increased phosphorylation of Lck at Y505”. Further, the “TCR-induced phosphorylation of Lck at Y394” value in the assay with JTAg cells (JTAg cells) is recorded as “lack of activity”.

`O=C(CSc1nc(C2CC2)nc2sc3c(c12)CCCC3)NCc1ccc2c(c1)OCO2` [Compound 6]: in the assay with JTAg cells (JTAg cells), the “TCR-induced phosphorylation of Lck at Y394” value is given as “lack of activity”.
